Measured values from patent US20240026383A1 (priority 2020, published 2024).
Entries after “also recorded” stand apart in the source; their conditions may differ.

Tests used:
[1] = system: Flavobacterium IR1; assay: Theophylline toxicity assay on growth; assay type: cell-based; conditions: 24 hours at 25° C.
Method: Because theophylline uptake from IR1 appears to be a prerequisite, a toxicity assay was carried out on the growth of IR with varying theophylline concentrations ([…]) grown for 24 hours at 25° C. […] The arrow indicates the time when theophylline was added to the medium. […] Therefore, 2 mM of theophylline was used for inducing the intron splicing in following experiments.

[2] = system: LacZa of E. coli MG1655; assay: FnCas12a targeting assay with Tagged-T4 td intron variants (CFU drop plating); assay type: cell-based; conditions: T crRNA, both induced and non-induced selective media
From the text: Four different intron variants (as shown previously in FIG. 8), referred to as “Tag1”, “Tag2”, etc. (Tag1: −4P, −5P, −6P; Tag2: −4W, […] −4W, −5W, −6P; Tag4: −4M, −5P, −6P) are inserted directly after the start codon of the GOI (FnCas12a gene). The 5′ exon sequences of the four different tags are indicated: Tag1: TCCtcaGGT (SEQ ID NO: 7); Tag2: TCCtcgGGT (SEQ ID NO: 8); Tag3: TCCttgGGT (SEQ ID NO: 9); Tag4: TCCtctGGT (SEQ ID NO: 10). The 3′ exon sequence is conserved amongst the 4 different tags and indicated as CTA (SEQ ID NO: 12). The amino acids corresponding to the Tag sequences are indicated with capital bold letters above the Tagged-introns. Intron-less (wild-type) FnCas12a was used as a reference for comparison. Efficiency of targeting of the different Tagged-T4 td intron variants was assessed by using either a LacZa targeting (T) or a non-targeting (NT) crRNA and by comparing the amount of colony forming units (CFUs) of transformed E. coli MG1655 per μg of plasmid used (CFUs μg^−1). CFU was determined by the number of colonies observed.
Electrocompetent E. coli MG1655 were transformed (2.5 kV, 200 Ω, 25 μF) with 10 ng μL^−1 of the respective plasmid and recovered for 1 hour in 500 μL LB medium [10 g L^−1 tryptone (Oxoid), 5 g L^−1 yeast extract (BD), 10 g L^−1 NaCl (Acros)] at 37° C. Then, the recovered culture was serially diluted and drop plated on selective (50 μg mL^−1 kanamycin) LB agar plates in the presence or absence of 2 mM theophylline. The agar plates were incubated at 30° C. for 24 hours and the CFUs were counted.
E. coli MG1655 was transformed with a series of plasmids (listed in Table 4) and serially diluted and drop plated on selective (kanamycin) LB media with or without 2 mM theophylline. […] The effect of the CFU reduction was more apparent for the Tag4-intron where colonies could only be observed at the 10° dilution, followed by Tag3-intron (10^−1) then Tag2-intron (10^−2) and finally Tag1-intron ([…]).

[3] = system: LacZ gene of E. coli MG1655; assay: SIBR-Cas genome editing (HR and CRISPR-Cas counterselection) of LacZ; assay type: cell-based
From the text: For efficient genome editing in bacteria, HR should precede CRISPR-Cas counterselection. To assess whether tight control over CRISPR-Cas targeting could bolster the efficiency of CRISPR-Cas mediated genome editing by allowing more time for HR to occur, we used SIBR-Cas and targeted the LacZ gene of E. coli MG1655 for knock-out through HR and CRISPR-Cas counterselection using a blue/white screening colony assay. To facilitate HR, we added 500 bp up- and down-stream homology arms to the plasmids expressing the four SIBR-Cas (Int1-4) and WT-FnCas12a variants that target the LacZ gene. After 1 hour recovery, we induced the expression of the SIBR-Cas variants to counterselect the WT from the mutant colonies.
Since disruption of LacZ can also be achieved through non-HR mediated approaches (spontaneous mutations or occasional error-prone DNA repair following DNA cleavage by Cas12a), not all gene deletions can be screened phenotypically. Therefore, we repeated our experiment, but X-gal was omitted from the medium to eliminate the possibility of false-positives. Randomly selected colonies that were obtained were screened by PCR for LacZ deletion showing a 0%, 0%, 29% and 38% editing efficiency for Int1, Int2, Int3 and Int4 SIBR-Cas variants, respectively (FIG. 24C). […] The observed decrease in editing efficiency (compared to the blue/white screening) might be attributed to spontaneous LacZ mutations that escape CRISPR-Cas counterselection. Nevertheless, a high editing efficiency (38%) was observed when SIBR-Cas Int4 was used without the use of recombinases or any other complex systems.

[4] = system: EndA of P. putida; assay: FnCas12a targeting assay with Tagged-T4 td intron variants in P. putida; assay type: cell-based, Pseudomonas putida; conditions: media with or without theophylline
Method: Plasmids bearing the four T4 td intron-FnCas12a or the intron-less FnCas12a and an EndA T or an NT crRNA were transformed to P. putida and the targeting efficiency was assessed by comparing the CFUs μg^−1 in the presence or absence of the theophylline inducer.
In more detail, electrocompetent P. putida cells were transformed (2.5 kV, 200 Ω, 25 μF) with 200 ng plasmid and recovered in 1 ml LB for 2 hours at 30° C. Then, the culture was serially diluted and drop plated on selective (50 μg mL^−1 kanamycin) LB agar plates in the presence or absence of 2 mM theophylline. The agar plates were incubated at 30° C. for 24 hours and the CFUs were counted.
P. putida was transformed with a series of plasmids (listed in Table 6) and serially diluted and drop plated on selective (kanamycin) LB media with or without 2 mM theophylline. […] However, for P. putida, the effect of induction was more apparent than E. coli as no CFUs could be observed for transformants bearing the T crRNA and plated on selective media with theophylline. […] Collectively, the Tagged-intron constructs work efficiently in P. putida and can be used for genome engineering.

Compound	growth of IR1 ([1]; 5 and 10 mM of theophylline)	growth of IR1 ([1]; theophylline concentration of up to 2 mM)	CFUs [2]	colonies obtained ([3]; LacZ targeting)	unbiased editing efficiency (LacZ deletion by PCR of randomly selected colonies) ([3]; X-gal omitted from the medium) [%]	editing efficiency: percentage of white colonies from total CFUs mL-1 ([3]; blue/white screening, LacZ targeting, induced after 1 hour recovery) [%]	CFUs [4]
Cn1c(=O)c2[nH]cnc2n(C)c1=O [Theophylline, theophylline]	decreased the growth	did not affect significantly the growth	–	–	–	–	–
WT-FnCas12a: Intron-less (wild-type) FnCas12a used as a reference for comparison [reference compound]	–	–	complete elimination of CFUs	no colonies; also recorded: did not yield any colonies	0	0	did not have any CFUs
